This is an account of results in US7968294B2, “SLIT2 underexpression in metastatic prostate cancer” (The Regents of the University of Michigan, priority 2008, dated 2011).

Entries after “also recorded” stand apart in the source; their conditions may differ.

The test system of this assay is SLIT2 expression in prostate cancer cell lines. The assay is described as follows: QRT-PCR analysis of SLIT2 transcript after compound treatment. Format: cell-based, human. Conditions: normalized to GAPDH housekeeping gene, FIG. 4c-e, DU145 prostate cancer cell lines, 5 uM SAHA time-course in panel d.

With `Nc1nccc2c1ncn2C1C=C(CO)C(O)C1O` (centres unmarked) [DZNep], the “SLIT2 expression (transcript level)” value is on record as “Marked up-regulation”.
Take `O=C(CCCCCCC(=O)Nc1ccccc1)NO` [SAHA]: the “SLIT2 expression (transcript level)” value is listed as “restore the expression level of SLIT2; also recorded: up-regulated”.
